# Assay results as given in patent US7384949B2, “Thieno(3,2-d)pyrimidines and furano(3,2-d)pyrimidines and their use as purinergic receptor antagonists” (Vernalis Research Limited, priority 2001, dated 2008).
# What was measured:
# [1] = molecular target: human adenosine A2A receptors (Homo sapiens, UniProt P29274); experiment: in vitro binding to human adenosine A2A receptors, displacement of [3H]-CGS 21680; settings: hA2A receptors, radioligand [3H]-CGS 21680
# Description: Adenosine Receptor Binding Binding Affinities at hA2A Receptors
# [2] = test system: catalepsy; settings: cited from earlier work
# [3] = test system: Parkinsonian patients; settings: cited from earlier work
# Sequence of human adenosine A2A receptors (P29274 whole entry): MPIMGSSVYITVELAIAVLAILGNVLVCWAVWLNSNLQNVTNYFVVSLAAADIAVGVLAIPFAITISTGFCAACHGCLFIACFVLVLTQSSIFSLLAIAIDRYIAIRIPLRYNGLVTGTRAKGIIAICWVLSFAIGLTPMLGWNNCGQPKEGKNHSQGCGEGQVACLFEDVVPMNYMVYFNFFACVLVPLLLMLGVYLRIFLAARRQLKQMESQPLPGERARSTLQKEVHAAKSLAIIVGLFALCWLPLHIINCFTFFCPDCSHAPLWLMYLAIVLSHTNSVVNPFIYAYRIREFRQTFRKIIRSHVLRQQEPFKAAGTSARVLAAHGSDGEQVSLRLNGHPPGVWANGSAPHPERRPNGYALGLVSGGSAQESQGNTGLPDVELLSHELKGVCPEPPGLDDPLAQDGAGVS
Ki [1] [nM],SMILES,also measured
11,"OCCNc1nc(-c2ccco2)c2scc(Br)c2n1 [Example 15, 7-bromo-4-(2-furyl)-N-(2-hydroxyethyl)thieno[3,2-d]pyrimidine-2-amine]",melting point: 173.4 to 174.4 °C
19,"C=CCNc1nc(-c2ccco2)c2sccc2n1 [Example 40, N-allyl-4-(2-furyl)thieno[3,2-d]pyrimidine-2-amine]",melting point: 101 to 102 °C
2,"CN(C)c1nc(-c2nccs2)c2sccc2n1 [Example 65, N,N-dimethyl-4-(2-thiazolyl)thieno[3,2-d]pyrimidine-2-amine]",–
4,"CC(C)c1nc(-c2ccccn2)c2sccc2n1 [Example 70, 2-isopropyl-4-(2-pyridyl)thieno[3,2-d]pyrimidine]",–
8,COCCNc1nc(-c2ccco2)c2scc(Br)c2n1 [Example 71],melting point: 65 to 65.4 °C
14,"Nc1nc(-c2ccco2)c2sccc2n1 [Example 79, 4-(2-furyl)thieno[3,2-d]pyrimidine-2-amine]",–
1,"CCc1nc(-c2nc(C)cs2)c2sccc2n1 [Example 80, 2-ethyl-4-(4-methyl-2-thiazolyl)thieno[3,2-d]pyrimidine]",–
2,"CCc1nc(-c2nccs2)c2sccc2n1 [Example 82, 2-ethyl-4-(2-thiazolyl)thieno[3,2-d]pyrimidine]",–
20,"O=C(NCCNc1nc(-c2ccco2)c2sccc2n1)OCc1ccccc1 [Example 89, benzyl (2-(4-(2-furyl)thieno[3,2-d]pyrimidine-2-ylamino)ethyl)carbamate]",–
5,"Cc1cnc(-c2nc(N(C)C)nc3ccsc23)s1 [Example 104, N,N-dimethyl-4-(5-methyl-2-thiazolyl)thieno[3,2-d]pyrimidine-2-amine]",–
6,"Cc1nc(-c2nc(N(C)C)nc3ccsc23)sc1C [Example 105, N,N-dimethyl-4-(4,5-dimethyl-2-thiazolyl)thieno[3,2-d]pyrimidine-2-amine]",–
35,"Nc1nc(-c2nccs2)c2sccc2n1 [Example 110, 4-(2-thiazolyl)thieno[3,2-d]pyrimidine-2-amine]",–
1,"CC(C)c1nc(-c2nccs2)c2sccc2n1 [Example 113, 2-isopropyl-4-(2-thiazolyl)thieno[3,2-d]pyrimidine]",–
3,"CC(C)(C)c1nc(-c2nccs2)c2sccc2n1 [Example 139, 2-tert-butyl-4-(2-thiazolyl)thieno[3,2-d]pyrimidine]",–
6,"ClCCc1nc(-c2nccs2)c2sccc2n1 [Example 154, 2-(2-chloroethyl)-4-(2-thiazolyl)thieno[3,2-d]pyrimidine]",–
–,"CCCn1c(=O)c2c(nc(/C=C/c3ccc(OC)c(OC)c3)n2C)n(CCC)c1=O [KF 17837, (E)-8-(3,4-dimethoxystyryl)-1,3-dipropyl-7-methylxanthine]",anticataleptic effects of a subthreshold dose of L-DOPA plus benserazide ([2]; in vivo): potentiated; catalepsy induced by haloperidol and reserpine ([2]; in vivo): reduced; cataleptic responses induced by intracerebroventricular CGS 21680 ([2]; oral administration): significantly ameliorated
–,"Cn1c(=O)c2[nH]cnc2n(C)c1=O [theophylline, 1,3-dimethylxanthine]","mean objective disability scores ([3]; 15 Parkinsonian patients, up to 12 weeks, 150 mg/day): significant improvements; patients reporting moderate or marked subjective improvement ([3]; of 15 Parkinsonian patients, up to 12 weeks, 150 mg/day): 11; serum theophylline levels ([3]; slow release oral preparation 150 mg/day, after one week): 4.44 mg/L"
